For this assay, the target named is T1, human GR (Homo sapiens, UniProt P04150).
T1 sequence (P04150 1-777): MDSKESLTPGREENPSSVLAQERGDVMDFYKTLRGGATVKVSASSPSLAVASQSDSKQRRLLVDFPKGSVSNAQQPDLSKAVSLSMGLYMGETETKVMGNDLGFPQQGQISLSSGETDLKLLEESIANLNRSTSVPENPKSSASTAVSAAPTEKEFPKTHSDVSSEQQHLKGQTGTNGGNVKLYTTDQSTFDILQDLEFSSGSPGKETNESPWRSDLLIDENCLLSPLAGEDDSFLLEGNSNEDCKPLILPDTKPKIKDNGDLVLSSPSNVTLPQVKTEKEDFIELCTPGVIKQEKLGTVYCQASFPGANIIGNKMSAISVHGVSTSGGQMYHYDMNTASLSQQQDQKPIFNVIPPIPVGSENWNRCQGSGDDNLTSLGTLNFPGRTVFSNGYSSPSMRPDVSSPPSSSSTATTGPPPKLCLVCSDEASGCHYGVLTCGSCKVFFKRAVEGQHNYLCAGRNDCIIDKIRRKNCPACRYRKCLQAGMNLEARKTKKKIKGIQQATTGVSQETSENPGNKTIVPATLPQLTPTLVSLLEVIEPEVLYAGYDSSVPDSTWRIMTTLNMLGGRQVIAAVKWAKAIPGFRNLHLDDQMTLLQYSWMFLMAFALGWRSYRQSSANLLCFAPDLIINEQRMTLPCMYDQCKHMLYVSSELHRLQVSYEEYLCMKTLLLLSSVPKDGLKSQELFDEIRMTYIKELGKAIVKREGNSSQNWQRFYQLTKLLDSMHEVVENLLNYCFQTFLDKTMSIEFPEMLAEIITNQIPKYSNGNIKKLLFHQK
As to the kind of experiment: Trans-Activation Modulation of Glucocorticoid Receptor (GRAMMER), MMTV-LUC reporter gene. The settings on record: for Emax: A549; for EC50: A549 cells, IP = inflection point. More on the design: endogenous in cells. It counts as cell-based. The text has this:
Trans-Activation Modulation of Glucocorticoid Receptor (GRAMMER)
This assay assesses the ability of test compounds to control transcription from the MMTV-LUC reporter gene in lung adenocarcinoma A549 cells or HeLa cells, a human […] cell line that naturally expresses the human GR. The assay measures induction of a modified MMTV LTR/promoter linked to the LUC reporter gene.
The routine transient assay consists of plating 7,000-25,000 cells/well of a white, clear-bottom 96-well plate. Alternatively, 384-well plates can be used at a cell concentration of 10,000/well. The media that the cells are plated in is “exponential growth medium” which consists of phenol red-free RPMI1640 containing 10% FBS, 4 mM L-glutamine, 20 mM HEPES, 10 ug/mL human insulin, and 20 ug/mL gentamicin. Incubator conditions are 37° C. and 5% CO2. The transfection is done in batch mode. The cells are trypsinized and counted to the right cell number in the proper amount of fresh media. It is then gently mixed with the FuGene6/DNA mix and plated onto the 96 or 384-well plate, all the wells receive 100 uL or 40 uL, respectively, of medium+lipid/DNA complex then incubated 37° C. overnight. The transfection cocktail consists of serum-free OptiMEM, FuGene6 reagent and DNA. The manufacturer's (Roche Biochemical) protocol for cocktail setup is as follows: The lipid to DNA ratio is approximately 2.5:1 and the incubation time is 20 min at room temperature. Sixteen to 24 hours after transfection, the cells are treated with dexamethasone to a final concentration of 10 nM as well as the compound of interest, such that final DMSO (vehicle) concentration is equal to or less than 1%. Each plate also contains samples that are treated with 10 nM dexamethasone alone, which is used as the 100% activity control. The cells are exposed to the compounds for 24 hours. After 24 hours, the cells are lysed by a Promega cell culture lysis buffer for approximately 30 min and then the luciferase activity in the extracts is assayed in the 96-well format luminometer. In 384-well format, Steady-Glo (Promega) or Steady-Lite (PerkinElmer) can be used by adding an equal volume of reagent to the media present in each well. Activity induced by 10 nM dexamethasone alone is set at 100% activity. Antagonist activity is calculated by determining the decrease in dexamethasone-induced activity in response to compound treatment relative to samples that were treated with dexamethasone alone. […] This transactivation assay can be performed in an agonist and antagonist mode to identify these different activities. […]
On the technique in general: Reporter assays use an easily measured gene product as a stand-in for the process of interest.

Where [1] appears, read: read-out: Transactivation A549 Cells GRAMMER Emax (%).
Setting [2] is: Table 1, read-out: Transactivation A549 Cells GRAMMER IP.
[3] abbreviates: read-out: Transactiviation A549 Cells GRAMMER Emax (%).
The mark [4] stands for this setting: Table 2, read-out: Transactiviation A549 Cells GRAMMER IP.

Experimental findings from US8119681B2, “2-[1-phenyl-5-hydroxy or methoxy-4alpha-methyl-hexahydrocyclopenta [ƒ]indazole-5-YL]ethyl phenyl derivatives as glucocorticoid receptor ligands” (Merck Sharp & Dohme Corp., priority 2006, dated 2012) are described below.

In general, Emax refers to the size of the effect at its maximum, as opposed to the concentration needed.

Like-named read-outs stand apart in the source and are kept apart here.

For `CC(O)(C(N)=O)c1ccccc1CC[C@]1(O)CCC2=Cc3c(cnn3-c3ccc(F)cc3)C[C@@]21C` (single isomer, unassigned) [Example 150], the Emax under setting [1] is 38%. Further, under setting [2], the EC50 came out at 264 nM.

Regarding `CC(C(N)=O)c1ccccc1CC[C@]1(O)CCC2=Cc3c(cnn3-c3ccc(F)cc3)C[C@@]21C` (single isomer, unassigned) [Example 196], the Emax under setting [1] worked out at 20%. Moreover, under setting [2], the EC50 stood at 253 nM.

For `C[C@]12Cc3cnn(-c4ccc(F)cc4)c3C=C1CC[C@@]2(O)CCc1ccccc1C(F)C(N)=O` (single isomer, unassigned) [Example 198], under setting [1], the Emax stood at 29%. In addition, the EC50 under setting [2] amounted to 187 nM.

`C[C@]12Cc3cnn(-c4ccc(F)cc4)c3C=C1CC[C@@]2(O)CCc1ccccc1` [Example 2 WO 2004/075840 A2, reference compound]: the Emax under setting [3] was found to be 73%. Further, under setting [4], the EC50 amounted to 230 nM.

For `CCNC(=O)c1ccccc1CC[C@]1(O)CCC2=Cc3c(cnn3-c3ccc(F)cc3)C[C@@]21C` [Example 2, N-ethyl-2-{2-[(4αS,5R)-1-(4-fluorophenyl)-5-hydroxy-4α-methyl-1,4,4α,5,6,7-hexahydrocyclopenta[f]indazol-5-yl]ethyl}benzamide], the maximum response (Emax) under setting [1] worked out at 51%. Also, the EC50 under setting [2] was 39 nM.

On to `C[C@]12Cc3cnn(-c4ccc(F)cc4)c3C=C1CC[C@@]2(O)CCc1ccccc1CNS(=O)(=O)C1CC1` [Example 5, N-(2-{2-[(4αS,5R)-1-(4-fluorophenyl)-5-hydroxy-4α-methyl-1,4,4α,5,6,7-hexahydrocyclopenta[f]indazol-5-yl]ethyl}benzyl)cyclopropanesulfonamide], for which the Emax under setting [1] was 40%. Moreover, the EC50 under setting [2] was found to be 138 nM.

For `C[C@]12Cc3cnn(-c4ccc(F)cc4)c3C=C1CC[C@@]2(O)CCc1ccccc1N1CCC1=O` [Example 11, 1-(2-{2-[(4αS,5R)-1-(4-fluorophenyl)-5-hydroxy-4α-methyl-1,4,4α,5,6,7-hexahydrocyclopenta[f]indazol-5-yl]ethyl}phenyl)azetidin-2-one], the Emax under setting [1] came to 39%. Under setting [2], the EC50 was found to be 290 nM.

Consider `CC(=O)Nc1ccccc1CC[C@]1(O)CCC2=Cc3c(cnn3-c3ccc(F)cc3)C[C@@]21C` [Example 14, N-(2-{2-[(4αS,5R)-1-(4-fluorophenyl)-5-hydroxy-4α-methyl-1,4,4α,5,6,7-hexahydrocyclopenta[f]indazol-5-yl]ethyl}phenyl)acetamide], for which, under setting [1], the Emax was 55%. Under setting [2], the EC50 came to 175 nM.

As to `C[C@]12Cc3cnn(-c4ccc(F)cc4)c3C=C1CC[C@@]2(O)CCc1ccccc1NS(=O)(=O)C1CC1` [Example 15, N-(2-{2-[(4αS,5R)-1-(4-fluorophenyl)-5-hydroxy-4α-methyl-1,4,4α,5,6,7-hexahydrocyclopenta[f]indazol-5-yl]ethyl}phenyl)cyclopropanesulfonamide], under setting [1], the Emax worked out at 43%. For the same compound, the EC50 under setting [2] is 236 nM.

As to `C[C@]12Cc3cnn(-c4ccc(F)cc4)c3C=C1CC[C@@]2(O)CCc1ccccc1S(C)(=O)=O` [Example 19, (4αS,5R)-1-(4-fluorophenyl)-4α-methyl-5-{2-[2-(methylsulfonyl)phenyl]ethyl}-1,4,4α,5,6,7-hexahydrocyclopenta[f]indazol-5-ol], the Emax under setting [1] was 46%. Further, the EC50 under setting [2] was found to be 127 nM.

For the compound `C[C@]12Cc3cnn(-c4ccc(F)cc4)c3C=C1CCC[C@@H]2[C@@H](O)Cc1ccccc1` [Example 22 WO 03/086294 A2, reference compound], the Emax under setting [3] amounted to 85%. The EC50 under setting [4] was found to be 109 nM.

In the case of `CNC(=O)Cc1ccccc1CC[C@]1(O)CCC2=Cc3c(cnn3-c3ccc(F)cc3)C[C@@]21C` [Example 23, 2-(2-{2-[(4αS,5R)-1-(4-fluorophenyl)-5-hydroxy-4α-methyl-1,4,4α,5,6,7-hexahydrocyclopenta[f]indazol-5-yl]ethyl}phenyl)-N-methylacetamide], the Emax under setting [1] came to 36%. Moreover, under setting [2], the EC50 is 268 nM.

Turning to `COC(=O)C1(NC(=O)c2ccccc2CC[C@]2(O)CCC3=Cc4c(cnn4-c4ccc(F)cc4)C[C@@]32C)CC1` [Example 26, methyl 1-[(2-{2-[(4αS,5R)-1-(4-fluorophenyl)-5-hydroxy-4α-methyl-1,4,4α,5,6,7-hexahydrocyclopenta[f]indazol-5-yl]ethyl}benzoyl)amino]cyclopropanecarboxylate], under setting [1], the Emax amounted to 24%. Also, the EC50 under setting [2] came out at 39 nM.

In the case of `CC1(NC(=O)c2ccccc2CC[C@]2(O)CCC3=Cc4c(cnn4-c4ccc(F)cc4)C[C@@]32C)CC1` [Example 28, 2-{2-[(4αS,5R)-1-(4-fluorophenyl)-5-hydroxy-4α-methyl-1,4,4α,5,6,7-hexahydrocyclopenta[f]indazol-5-yl]ethyl}-N-(1-methylcyclopropyl)benzamide], the Emax under setting [1] stood at 28%. For the same compound, the EC50 under setting [2] came to 48 nM.

For `CC(C)CNC(=O)c1ccccc1CC[C@]1(O)CCC2=Cc3c(cnn3-c3ccc(F)cc3)C[C@@]21C` [Example 29, 2-{2-[(4αS,5R)-1-(4-fluorophenyl)-5-hydroxy-4α-methyl-1,4,4α,5,6,7-hexahydrocyclopenta[f]indazol-5-yl]ethyl}-N-isobutylbenzamide], the Emax under setting [1] came to 24%. Further, the EC50 under setting [2] turned out to be 95 nM.

`CCCNC(=O)c1ccccc1CC[C@]1(O)CCC2=Cc3c(cnn3-c3ccc(F)cc3)C[C@@]21C` [Example 30, 2-{2-[(4αS,5R)-1-(4-fluorophenyl)-5-hydroxy-4α-methyl-1,4,4α,5,6,7-hexahydrocyclopenta[f]indazol-5-yl]ethyl}-N-propylbenzamide]: the Emax under setting [1] is 29%. Moreover, the EC50 under setting [2] is 81 nM.

Take `CC(CNC(=O)c1ccccc1CC[C@]1(O)CCC2=Cc3c(cnn3-c3ccc(F)cc3)C[C@@]21C)C(F)(F)F` (stereo partly drawn) [Example 31, 2-{2-[(4αS,5R)-1-(4-fluorophenyl)-5-hydroxy-4α-methyl-1,4,4α,5,6,7-hexahydrocyclopenta[f]indazol-5-yl]ethyl}-N-(3,3,3-trifluoro-2-methylpropyl)benzamide]: the Emax under setting [1] worked out at 9%. The EC50 under setting [2] worked out at 93 nM.

Turning to `C=C(C)CNC(=O)c1ccccc1CC[C@]1(O)CCC2=Cc3c(cnn3-c3ccc(F)cc3)C[C@@]21C` [Example 32, 2-{2-[(4αS,5R)-1-(4-fluorophenyl)-5-hydroxy-4α-methyl-1,4,4α,5,6,7-hexahydrocyclopenta[f]indazol-5-yl]ethyl}-N-(2-methylprop-2-en-1-yl)benzamide], the Emax under setting [1] turned out to be 13%. For the same compound, the EC50 under setting [2] was 134 nM.

In the case of `C=CCNC(=O)c1ccccc1CC[C@]1(O)CCC2=Cc3c(cnn3-c3ccc(F)cc3)C[C@@]21C` [Example 33, N-allyl-2-{2-[(4αS,5R)-1-(4-fluorophenyl)-5-hydroxy-4α-methyl-1,4,4α,5,6,7-hexahydrocyclopenta[f]indazol-5-yl]ethyl}benzamide], under setting [1], the Emax came to 37%. Moreover, the EC50 under setting [2] was determined as 62 nM.

Consider `CC1(NC(=O)c2ccccc2CC[C@]2(O)CCC3=Cc4c(cnn4-c4ccccc4)C[C@@]32C)CC1` [Example 34, 2-{2-[(4αS,5R)-5-hydroxy-4α-methyl-1-phenyl-1,4,4α,5,6,7-hexahydrocyclopenta[f]indazol-5-yl]ethyl}-N-(1-methylcyclopropyl)benzamide], for which the Emax under setting [1] came to 13%. Also, the EC50 under setting [2] was 128 nM.
